Tests used:
PTPN2 enzyme = molecular target: T1, PTPN2 enzyme (Homo sapiens, UniProt P17706); assay: PhosphoSens PTPN2 biochemical assay; settings: substrate AQT0264 20 μM, room temperature; read-out: PTPN2 BCHEM IC50
T1 sequence (P17706 1-415): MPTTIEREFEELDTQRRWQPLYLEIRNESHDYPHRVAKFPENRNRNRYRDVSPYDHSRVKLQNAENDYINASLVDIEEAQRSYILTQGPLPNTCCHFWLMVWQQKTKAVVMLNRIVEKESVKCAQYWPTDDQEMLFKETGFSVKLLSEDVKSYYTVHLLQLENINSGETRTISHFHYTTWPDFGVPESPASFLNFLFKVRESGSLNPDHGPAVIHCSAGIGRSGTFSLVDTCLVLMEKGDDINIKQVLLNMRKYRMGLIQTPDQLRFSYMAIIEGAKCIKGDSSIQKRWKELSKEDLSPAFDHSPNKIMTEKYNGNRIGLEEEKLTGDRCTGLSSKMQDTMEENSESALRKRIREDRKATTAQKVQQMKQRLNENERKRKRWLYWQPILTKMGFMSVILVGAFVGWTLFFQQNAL
Summary of the method: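 PhosphoSens fluorescence format with 20 μM final AQT0264 substrate and […] in 50 mM HEPES pH 7.5, 500 μM EGTA, […], 0.01% Brij-35, 1% glycerol, 1 mM DTT, 0.2 mg/mL BSA. Compounds in 3-fold dilution series; progress curves read (ex 360/em 480 nm) every 71 s for 1 h at room temperature.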

[1] = tested on: phosphorylated STAT1 protein levels in B16-F10 cells; assay: Phospho-STAT1 (Tyr701) HTRF assay in IFN-gamma treated B16-F10 cells; type: cell-based; settings: mouse IFN-gamma 100 ng/mL, 1 hour, read-out: pSTAT1 HTRF B16 EC50
Summary of the method: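 Mouse B16-F10 cells, 10,000/well, pretreated 1 h with compound (0.15% DMSO), then stimulated with mouse IFN-gamma at 100 ng/mL final for 1 h at 37 C. Phospho-STAT1 (Tyr701) measured by HTRF.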

B16-F10 cells = assay: Cell proliferation assay (CellTiter-Glo) in IFN-gamma treated B16-F10 cells; type: cell-based; settings: 120 h, mouse IFN-gamma 10 ng/mL, read-out: PTPN2 Prolif 5d B16F10 EC50
Method: B16-F10 cells (ATCC, Manassas, VA, #CRL-6475) were cultured in DMEM growth medium (ThermoFisher Scientific, Waltham, MA, #11995-040) supplemented with 10% heat inactivated FBS (ThermoFisher Scientific, #16140-071) and 1% pen/strep (ThermoFisher Scientific, #15140-122). The cells were seeded into two white opaque 384-well tissue culture treated microplates (PerkinElmer, Waltham, MA, #6007688) at a density of 100 cells/well in 20 uL total volume and incubated overnight at 37 C and 5% CO2. 30 nL of compounds dissolved in DMSO were then transferred from a source plate into target wells with the Echo650 acoustic liquid handler (Beckman Coulter, Indianapolis, IN). Negative control wells received 30 nL of DMSO only (0.15% final concentration). Plates were returned to the incubator for 1 hour and then cells treated with either 5 uL of growth medium or 5 uL of growth medium containing 50 ng/mL of recombinant mouse IFN-gamma protein (R&D Systems, Minneapolis, MN, #485-MI/CF, 10 ng/mL final concentration) using the Assist automated pipetting platform (INTEGRA Biosciences, Hudson, NH). Plates were incubated at 37 C for 4 days and cell proliferation assayed with the CellTiter-Glo reagent (Promega, Madison, WI, #G7573, 25 uL per well). […] Off-target compound mediated cytotoxicity was identified by checking for growth inhibition in the absence of IFNg.

IC50 (PTPN2 enzyme)	EC50 [1]	EC50 (B16-F10 cells)	Compound
148 nM	≥ 15000 nM	≥ 15000 nM	O=C1CN(c2c(O)cc(-c3ccc(-c4ccccc4)nc3)cc2F)S(=O)(=O)N1 [EXAMPLE 30, 5-[2-fluoro-6-hydroxy-4-(6-phenyl-3-pyridyl)phenyl]-1,1-dioxo-1,2,5-thiadiazolidin-3-one]
104 nM	2410 nM	1310 nM	CN1CCN(Cc2cc(O)c(N3CC(=O)NS3(=O)=O)c(F)c2)CC1 [EXAMPLE 31, 5-(2-fluoro-6-hydroxy-4-((4-methylpiperazin-1-yl)methyl)phenyl)-1,2,5-thiadiazolidin-3-one 1,1-dioxide]
65 nM	≥ 15000 nM	≥ 15000 nM	CC(C)CCN1CCN(Cc2cc(O)c(N3CC(=O)NS3(=O)=O)c(F)c2)CC1 [EXAMPLE 32, 5-(2-fluoro-6-hydroxy-4-((4-isopentylpiperazin-1-yl)methyl)phenyl)-1,2,5-thiadiazolidin-3-one 1,1-dioxide]
94 nM	≥ 15000 nM	≥ 15000 nM	CN(C)C1CCN(Cc2cc(O)c(N3CC(=O)NS3(=O)=O)c(F)c2)CC1 [EXAMPLE 33, 5-(4-((4-(dimethylamino)piperidin-1-yl)methyl)-2-fluoro-6-hydroxyphenyl)-1,2,5-thiadiazolidin-3-one 1,1-dioxide]
90 nM	1740 nM	1720 nM	O=C1CN(c2c(O)cc(CNC3CCCCC3)cc2F)S(=O)(=O)N1 [EXAMPLE 34, 5-[4-[(cyclohexylamino)methyl]-2-fluoro-6-hydroxy-phenyl]-1,1-dioxo-1,2,5-thiadiazolidin-3-one]
1560 nM	≥ 15000 nM	≥ 15000 nM	O=C1CN(c2c(O)cc(CNC3CCOCC3)cc2F)S(=O)(=O)N1 [EXAMPLE 35, 5-[2-fluoro-6-hydroxy-4-[(tetrahydropyran-4-ylamino)methyl]phenyl]-1,1-dioxo-1,2,5-thiadiazolidin-3-one]
79 nM	≥ 15000 nM	≥ 15000 nM	CC(C)CC(=O)N1CCN(Cc2cc(O)c(N3CC(=O)NS3(=O)=O)c(F)c2)CC1 [EXAMPLE 36, 5-(2-fluoro-6-hydroxy-4-((4-(3-methylbutanoyl)piperazin-1-yl)methyl)phenyl)-1,2,5-thiadiazolidin-3-one 1,1-dioxide]
35 nM	1340 nM	812 nM	CC1(C)CCC(NCc2cc(O)c(N3CC(=O)NS3(=O)=O)c(F)c2)CC1 [EXAMPLE 37, 5-(4-(((4,4-dimethylcyclohexyl)amino)methyl)-2-fluoro-6-hydroxyphenyl)-1,2,5-thiadiazolidin-3-one 1,1-dioxide]
86 nM	≥ 15000 nM	≥ 15000 nM	O=C1CN(c2c(O)cc(CNC3CCNCC3)cc2F)S(=O)(=O)N1 [EXAMPLE 39, 5-(2-fluoro-6-hydroxy-4-((piperidin-4-ylamino)methyl)phenyl)-1,2,5-thiadiazolidin-3-one 1,1-dioxide]
131 nM	2340 nM	3260 nM	CCN1CCC(NCc2cc(O)c(N3CC(=O)NS3(=O)=O)c(F)c2)CC1 [EXAMPLE 40, 5-(4-(((1-ethylpiperidin-4-yl)amino)methyl)-2-fluoro-6-hydroxyphenyl)-1,2,5-thiadiazolidin-3-one 1,1-dioxide]
70 nM	3380 nM	3560 nM	O=C1CN(c2c(O)cc(CN3CCOCC3)cc2F)S(=O)(=O)N1 [EXAMPLE 41, 5-(2-fluoro-6-hydroxy-4-(morpholinomethyl)phenyl)-1,2,5-thiadiazolidin-3-one 1,1-dioxide]
60 nM	2570 nM	4720 nM	O=C1CN(c2c(O)cc(CN3CCC(F)CC3)cc2F)S(=O)(=O)N1 [EXAMPLE 42, 5-(2-fluoro-4-((4-fluoropiperidin-1-yl)methyl)-6-hydroxyphenyl)-1,2,5-thiadiazolidin-3-one 1,1-dioxide]
239 nM	4270 nM	4350 nM	CN(Cc1cc(O)c(N2CC(=O)NS2(=O)=O)c(F)c1)C1CCCCC1 [EXAMPLE 43, 5-(4-((cyclohexyl(methyl)amino)methyl)-2-fluoro-6-hydroxyphenyl)-1,2,5-thiadiazolidin-3-one 1,1-dioxide]
131 nM	≥ 15000 nM	≥ 15000 nM	COCCN1CCN(Cc2cc(O)c(N3CC(=O)NS3(=O)=O)c(F)c2)CC1 [EXAMPLE 44, 5-(2-fluoro-6-hydroxy-4-((4-(2-methoxyethyl)piperazin-1-yl)methyl)phenyl)-1,2,5-thiadiazolidin-3-one 1,1-dioxide]
35 nM	1150 nM	656 nM	CC1(C)CCC[C@@H](NCc2cc(O)c(N3CC(=O)NS3(=O)=O)c(F)c2)C1 [EXAMPLE 51, 5-[4-[[[(1R)-3,3-dimethylcyclohexyl]amino]methyl]-2-fluoro-6-hydroxy-phenyl]-1,1-dioxo-1,2,5-thiadiazolidin-3-one]
114 nM	4610 nM	6940 nM	O=C1CN(c2c(O)cc(CN3CCC(O)CC3)cc2F)S(=O)(=O)N1 [EXAMPLE 52, 5-[2-fluoro-6-hydroxy-4-[(4-hydroxy-1-piperidyl)methyl]phenyl]-1,1-dioxo-1,2,5-thiadiazolidin-3-one]
102 nM	3200 nM	2980 nM	COC1CCN(Cc2cc(O)c(N3CC(=O)NS3(=O)=O)c(F)c2)CC1 [EXAMPLE 53, 5-[2-fluoro-6-hydroxy-4-[(4-methoxy-1-piperidyl)methyl]phenyl]-1,1-dioxo-1,2,5-thiadiazolidin-3-one]
226 nM	≥ 15000 nM	≥ 15000 nM	CN(C)CC1CCN(Cc2cc(O)c(N3CC(=O)NS3(=O)=O)c(F)c2)CC1 [EXAMPLE 56, 5-[4-[[4-[(dimethylamino)methyl]-1-piperidyl]methyl]-2-fluoro-6-hydroxy-phenyl]-1,1-dioxo-1,2,5-thiadiazolidin-3-one]
376 nM	5080 nM	≥ 15000 nM	CNC(=O)[C@H]1CC[C@H](NCc2cc(O)c(N3CC(=O)NS3(=O)=O)c(F)c2)CC1 [EXAMPLE 58, (1r,4r)-4-((4-(1,1-dioxido-4-oxo-1,2,5-thiadiazolidin-2-yl)-3-fluoro-5-hydroxybenzyl)amino)-N-methylcyclohexane-1-carboxamide]
477 nM	≥ 15000 nM	≥ 15000 nM	CNC(=O)CN1CCN(Cc2cc(O)c(N3CC(=O)NS3(=O)=O)c(F)c2)CC1 [EXAMPLE 59, 2-(4-(4-(1,1-dioxido-4-oxo-1,2,5-thiadiazolidin-2-yl)-3-fluoro-5-hydroxybenzyl)piperazin-1-yl)-N-methylacetamide]
410 nM	≥ 15000 nM	≥ 15000 nM	CC(=O)N[C@H]1CC[C@H](NCc2cc(O)c(N3CC(=O)NS3(=O)=O)c(F)c2)CC1 [EXAMPLE 60, N-((1r,4r)-4-((4-(1,1-dioxido-4-oxo-1,2,5-thiadiazolidin-2-yl)-3-fluoro-5-hydroxybenzyl)amino)cyclohexyl)acetamide]
121 nM	4980 nM	2560 nM	O=C1CN(c2c(O)cc(CN[C@@H]3CCCNC3)cc2F)S(=O)(=O)N1 [EXAMPLE 61, (R)-5-(2-fluoro-6-hydroxy-4-((piperidin-3-ylamino)methyl)phenyl)-1,2,5-thiadiazolidin-3-one 1,1-dioxide]
88 nM	≥ 15000 nM	14600 nM	CC(C)CCN1CCC[C@@H](NCc2cc(O)c(N3CC(=O)NS3(=O)=O)c(F)c2)C1 [EXAMPLE 62, (R)-5-(2-fluoro-6-hydroxy-4-(((1-isopentylpiperidin-3-yl)amino)methyl)phenyl)-1,2,5-thiadiazolidin-3-one 1,1-dioxide]

Source: patent US12162848B2, “Inhibitors of protein tyrosine phosphatase, compositions, and methods of use” (BRISTOL-MYERS SQUIBB COMPANY, priority 2022, dated 2024)
